From EP3906926A1, “PROLINE HYDROXYLASE INHIBITORS FOR USE IN THE SKELETAL MUSCLE REGENERATION” (Policlinico San Donato S.p.A.- Istituto di Ricovero e Cura …, priority 2020, dated 2021)

How the values were obtained:
C57Bl/6N mice = assay: Cardiotoxin-induced muscle regeneration in mice; format: in vivo; conditions: single i.p. injection 10 mg/kg one day before CTX injury; 7 days after injury; laminin staining; vs saline
Procedure: Experiments on muscle regeneration were conducted on 8-10 weeks old male C57Bl/6N mice, matched for weight, and purchased from Charles River Laboratories (Calco, Italy).
Cardiotoxin (CTX, from Naja mossambica, Latoxan, Portes-les-Valence, France, http://www.latoxan.net/) was dissolved in sterile saline to a final concentration of 10 µM. Mice were anesthetized by isofluorane inhalation and hindlimbs were shaved and cleaned with alcohol. Tibialis anterior (TA) muscles were injected with 45 µl of CTX with a 30-gauge needle, with 15 micro-injections of 3 µl CTX each in the mid-belly of the muscle to induce a homogeneous damage. The TA muscles of the contralateral hindlimbs were injected with a saline solution.
DMSO, diluted at 2% in saline solution, was inoculated by i.p. injection to control mice. […] Mice were sacrificed seven days after cardiotoxin treatment.
Briefly, TA muscles were frozen in liquid nitrogen-cooled isopentane and mounted in Killik embedding medium (Bio-optica). Transverse muscle sections (7 µm) were cryosectioned from the midbelly of each muscle. Sections were stained with Hematoxylin (Bio-optica)/Eosin (Merck) to reveal general muscle architecture. […] Images were acquired using Axio Lab.A1 (Zeiss) and quantified with ImageJ v1.49o software.

MYOR = assay: qPCR of MYOR; format: cell-based, murine; conditions: IOX2 or FG-4592 treatment, vs controls
Procedure: (§1) Total RNA was isolated using ReliaPrep™ RNA Miniprep Systems (Promega), and reverse transcribed to cDNA using the iScript cDNA synthesis kit (BioRad), according to the Manufacturer's instructions. Real-Time Quantitative PCR was performed on 10 ng of cDNA template, 0.2 µM primers, and GoTaq® qPCR Master Mix (Promega) in 20 µl final volume using a StepOnePlus® Real-Time PCR System (Applied Biosystem). […] RPL13 was used as the housekeeping gene. The amplification program consisted in an initial denaturation at 95°C for 3 minutes, followed by 40 cycles of 5 seconds each at 95°C and 30 seconds at 57°C; WNT7a was amplified at 53°C. Relative quantification of target genes was performed in triplicate and calculated by the equation 2^-ΔΔCt.

HIF-1α = assay: Western blot of HIF-1α nuclear translocation; format: cell-based, murine; conditions: IOX2 or FG-4592 for 24 hours, vs untreated control; Lamin A/C housekeeper
Procedure: (§2) For nuclei separation, 5 x 10^6 cells were collected after enzymatic digestion with trypsin (Merck), centrifuged at the maximum speed, resuspended in 400 µl of Buffer A (10 mM KCl, 0.1 mM EDTA, 1 mM DTT, 10 mM Hepes, pH 7.9), containing protease and phosphatase inhibitors cocktail (Merck), and incubated on ice for 20 minutes. Then, 10% NP40 was added to the cell suspension, mixed for 40 seconds, and centrifuged 40 seconds at the maximum speed. After centrifugation, the pellet was resuspended in 80 µl of Buffer C (0.4M NaCl, 1 mM EDTA, 1 mM DTT, 20 mM Hepes, pH 7.9), containing a protease and phosphatase inhibitors cocktail, and then mixed for 30 minutes at 4°C at the maximum speed. Finally, the nuclear suspension was centrifuged for 5 minutes at 4°C at the maximum speed, collected and transferred in a new tube. The total protein content was determined with the BCA Protein Assay Kit (Pierce), according to the manufacturer's instructions.
(§3) Proteins were denaturated by boiling for 10 minutes in sample buffer (0.6 g/100 mL Tris, 2 g/100 mL SDS, 10% glycerol, 1% 2-mercaptoethanol, pH 6.8) and loaded into 10% SDS-PAGE gel, then transferred onto a nitrocellulose membrane (Trans-blot, Bio-Rad Laboratories) by electroblotting. Nitrocellulose membranes were incubated with a blocking solution containing 5% (w/v) non-fat dry milk or 5% (w/v) BSA (Merck) in Tris-buffer saline with 0.1% Tween® 20 (TBS-T) for 1 hour. […] Membranes were washed three times for 10 minutes with TBS-T, and then incubated with the appropriate anti-mouse, anti-rabbit, or anti-goat HRP-conjugated secondary antibodies (Dako, Agilent Technologies), 1:2000 dilution, for 1 hour at room temperature. After three washes for 10 minutes with TBS-T, the immunoreactive bands were visualized using the enhanced chemiluminescence detection kit reagents (ECL Advance, GeHealthcare), according to the manufacturer's instructions.
as §2, with “For total proteins extraction, 7.5 x 10^4 cells were seeded and harvested at 7th days of skeletal muscle differentiation, as previously described. Cells were collected after enzymatic digestion with trypsin (Merck), lysed by sonication and centrifuged at 800 xg for 10 minutes. Supernatant was used to determine total protein content with the BCA Protein Assay Kit (Pierce), according to the manufacturer's instructions. For” for “For”, “(0.4 M” for “(0.4M”

MHC = assay: Western blot of MHC in WNT7a-KO versus wild type myoblasts at end of differentiation; format: cell-based, murine; conditions: WNT7a-KO vs wild type cells, inhibitor pre-treated
Procedure: Cells were collected after enzymatic digestion with trypsin (Merck), lysed by sonication and centrifuged at 800 xg for 10 minutes. Supernatant was used to determine total protein content with the BCA Protein Assay Kit (Pierce), according to the manufacturer's instructions.
as §3
Therefore, WNT7a silencing was conducted by Crispr/Cas9 genome editing in C2C12 murine myoblasts and the effects on myogenesis were evaluated.

VEGF = assay: qPCR of HIF-1α target gene VEGF; format: cell-based, murine; conditions: IOX2 or FG-4592 treatment, vs untreated controls
Procedure: as §1
as §1, with “ReliaPrepTM” for “ReliaPrep™”, “2-ΔΔCt.” for “2^-ΔΔCt.”

WNT7a = assay: qPCR of WNT7a gene expression; format: cell-based, murine; conditions: IOX2 or FG-4592 treatment
Procedure: as §1

| Structure (SMILES) | enhancement of cross-sectional area (CSA) of regenerating myofibers (C57Bl/6N mice) | increase of minimal Feret diameter of regenerating myofibers (C57Bl/6N mice) | MYOR mRNA level down-regulated (MYOR) | HIF-1α nuclear translocation, protein increase (HIF-1α) | decrease of MHC expression (MHC) | increase in the expression of VEGF (VEGF) | increase in WNT7a gene expression (WNT7a) |
| --- | --- | --- | --- | --- | --- | --- | --- |
| Cc1nc(C(=O)NCC(=O)O)c(O)c2ccc(Oc3ccccc3)cc12 [FG-4592, Roxadustat] | 25% | 8% | 2.6 fold | 15 fold | 36% | 2.1 fold | 2.3 fold |
| O=C(O)CNC(=O)c1c(O)c2ccccc2n(Cc2ccccc2)c1=O [IOX2] |  |  | 2.2 fold | 8.8 fold | 18% | 1.6 fold | 1.4 fold |
